Marks after values point to notes of the source that are not given here.
Tests used:
SKOV3 tumor = test: SKOV3 ovarian tumor progression in nude mice; assay type: in vivo; settings: Mean ± S.E.
Description: Human mAb LT3015 reduced ovarian tumor SKOV3 progression and circulating cytokines in biological fluids. Nude mice were engrafted with either 10 mg/kg LT3015, vehicle, or 2 mg/kg paclitaxel (Taxol). After 56 days, mice were sacrificed and the peritoneal cavities were analyzed for tumor burden and ascites fluid accumulation. Tumors were harvested and final tumor weights were determined along with ascites volumes. Data were analyzed by ANOVA and student's t-test analysis. […] Serum and ascites levels of IL-6, IL-8, GM-CSF and VEGF were measured using ELISA kits from R&D systems, Minneapolis Minn.

[1] = system: IL-8 release in SKOV3 cells; test: LPA-induced IL-8 release in SKOV3 cells; assay type: cell-based, human; settings: 1 uM LPA alone
Description: (§1) Anti-LPA antibodies inhibit the LPA-dependant release of human CXCL8/IL-8 in conditioned media of SKOV3 ovarian cells. SKOV3 cells (Lot No 4255558, passage 14) were harvested with 2 ml of 1× Trypsin EDTA (Mediatech Inc, Cat. No 25-053-CV) and resuspended in 8 ml of complete medium (10% FBS, Mediatech Inc. Cat. no 35-011-CV). The cells were centrifuged for 5 min ([…]) and re-suspended in 5 ml of complete medium. Cells were counted in duplicate with 0.4% Trypan blue (10 ul cells plus 90 ul Trypan blue, Invitrogen, Cat. No 15250-061) using a hemocytometer. In a 96-well plate, 1×10^5 cells per well were seeded (final volume 100 ul/well). The cells were allowed to attach and form a confluent monolayer by incubating overnight at 37° C. On the following day, cells were gently washed two times with minimum media (1 mg/ml BSA in McCoy's medium with L-glutamine, Mediatech, Cat. No 10-050-CV). The media was adjusted to 1% penicillin/streptomycin (Mediatech, Cat. No 30-002 CI) and 2.2 g/L sodium-bicarbonate (Mediatech, Cat. No 25-035-CI). Next, the cells were serum-starved at 37° C. for exactly 24 h, followed by cytokine stimulation with 1 uM C18:1 LPA (Avanti, Cat. No 857130) dissolved in 1 mg/ml BSA/PBS (Calbiochem, Cat. No 126575) which was pre-incubated in presence or absence of humanized LPA antibody LT3015 (150, 300 or 600 ug/mL) for one hour. Treatments were then added to the cells. After 22 h of cytokine stimulation, the cells were centrifuged for 5 min (13,500 rpm) at 4° C. and the supernatants (cell-conditioned media) were collected. The CXCL8/IL-8 levels in each supernatant were measured using the Quantikine human CXCL8/IL-8 ELISA kit according to vendor instructions (R&D Systems, Minneapolis Minn., Cat. No D8000C). The IL-6 levels were measured by ELISA using the Quantikine human IL-6 immunoassay kit (R&D systems, Cat. No. D6050). Data were analyzed by one-way ANOVA followed by Bonferroni's post test and expressed as human IL-8 or human IL-6 fold increase.

[2] = system: IL-6 release in SKOV3 cells; test: LPA-induced IL-6 release in SKOV3 cells; assay type: cell-based, human; settings: 1 uM LPA alone
Description: as §1, with “The media was adjusted to 1% penicillin/streptomycin (Mediatech, Cat. No 30-002 CI) and 2.2 g/L sodium-bicarbonate (Mediatech, Cat. No 25-035-CI). Next, the cells were serum-starved at 37° C. for exactly 24 h, followed by cytokine stimulation with 1 uM C18:1 LPA (Avanti, Cat. No 857130) dissolved in 1 mg/ml BSA/PBS (Calbiochem, Cat. No 126575) which was pre-incubated in presence or absence of humanized LPA antibody LT3015 (150, 300 or 600 ug/mL) for one hour. Treatments were then added to the cells. After 22 h of cytokine stimulation, the cells were centrifuged for 5 min (13,500 rpm) at 4° C. and the supernatants (cell-conditioned media) were collected.” left out

SKOV3 cells = test: Scratch assay, SKOV3 tumor cell migration; assay type: cell-based, human; settings: 17 hr
Description: SKOV3 cells were plated at 15,000 cells per well in a 96-well plate. The following day the cells were serum starved in minimal media (McCoy's Media 5a, adjusted to contain L-Glutamine, 2.2 g/L Sodium Bicarbonate, 1% penicillin/streptomycin and 1 mg/ml BSA) for 24 hrs. At time 0 cells were scratched with a p200 pipet tip down the center of each well, washed with minimal media and pictures were taken prior to treatment. Cells were then treated with LPA (C18:1) at 0.2 uM, 1.0 uM and 10 uM concentrations which were pre-incubated at 37° C. with […] in the presence or absence of antibody at 150 ug/ml. Positive control (10% FBS treated cells) and antibody alone added to 1 uM LPA, were also tested. Cells were stimulated for 17 hrs at 37° C. in a 5% CO2 incubator. Pictures were taken again 17 hr post-treatment and % wound closure was measured by adjusting pictures to the same size and measuring the width of the scratch at time 0 and time 17 hr with a ruler. Data were analyzed by Student's t-test.

IL-8 in Caki-1 cells = test: LPA-induced IL-8 production in Caki-1 cells; assay type: cell-based, human; settings: 18:1 LPA (0.2 mM), non-treated cells, average
Description: Three anti-LPA mAbs (B3, B7 and B58) were tested for their abilities to reduce in vitro IL-8 production compared to a non-specific antibody (NS). Caki-1 cells were seeded in 96 well plates and grown to confluency. After overnight serum starvation, cells were treated with 18:1 LPA (0.2 mM) with or without anti-LPA mAb B3, B7, B58 or NS (Non-Specific). After 24 h, cultured supernatants of renal cancer cells (Caki-1), treated with or without LPA and in presence of increasing concentrations of the anti-LPA mAbs B3, B7 and B58, were collected and analyzed for IL-8 levels using a commercially available ELISA kit (Human Quantikine Kit, R&D Systems, Minneapolis, Minn.). […] The inhibition of IL-8 release by the anti-LPA mAbs was also observed in other cancerous cell lines such as the pancreatic cell line Panc-1.

Compound	Ascites volume (SKOV3 tumor) [mL]	Human IL-8 Fold Increase (approx). [1]	Human IL-6 Fold Increase (approx). [2]	Percent wound closure (approx.) (SKOV3 cells; 0.2 uM LPA) [%]	Percent wound closure (approx.) (SKOV3 cells; 1.0 uM LPA) [%]	Percent wound closure (approx.) (SKOV3 cells; 10 uM LPA) [%]	increase of IL-8 expression (IL-8 in Caki-1 cells) [%]
CC(=O)O[C@H]1C(=O)[C@@]2(C)[C@H]([C@H](OC(=O)c3ccccc3)[C@]3(O)C[C@H](OC(=O)[C@H](O)[C@@H](NC(=O)c4ccccc4)c4ccccc4)C(C)=C1C3(C)C)[C@]1(OC(C)=O)CO[C@@H]1C[C@@H]2O [Taxol, paclitaxel, reference compound]	0.2 ± 0.0						
Lysophosphatidic acid [LPA, reference compound]		~7.1##	~29##	~65	~81	~89	100
